Measurements published in publication PMC11992225, “Antibacterial compounds against non-growing and intracellular bacteria” (npj Antimicrobials and Resistance, 2025).
≈ marks a conversion by molar mass, not a printed value. Where two headings read alike, the source gives them in different places.

Assays:
S. flexneri 5a M90T = experiment: MIC in tryptic soy broth, S. flexneri; format: cell-based, Shigella flexneri; details: for MIC: Shigella flexneri, 5AM90T, read-out: MIC (μM) TSB
Outline: (§1)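 Broth microdilution was used throughout. UPEC, P. aeruginosa and S. aureus were tested in CA-MHB buffered with 40 mM HEPES (pH 7.4); UPEC was additionally tested in LPM with 30 mM MES (pH 5.5). S. flexneri was grown in TSB. All determinations were run in triplicate.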

P. aeruginosa DSM1117 = experiment: MIC, standard microdilution assay, growing P. aeruginosa; format: cell-based, Pseudomonas aeruginosa; details: P. aeruginosa
Outline: as §1

[1] = tested on: non-growing P. aeruginosa DSM1117; experiment: Dilution-regrowth assay (OD600, start-growth-time) on stationary-phase P. aeruginosa; format: cell-based, Pseudomonas aeruginosa; details: P. aeruginosa; for EC50: regrowth delay of non-growing bacteria, 1:4 CA-MHB pH 7.4, 24 h treatment, OD600 8 h after dilution, read-out: EC50; for Regrowth, OD600 at 6h or 8h after dilution into drug-free medium: average
Description: To determine the spectrum of activity of the compounds that were effective against non-growing UPEC, we further assessed their efficacy against the well-characterized Gram-negative and Gram-positive reference strains P. aeruginosa DSM1117 and S. aureus DSM2569, respectively. The cultures were grown and treated for 24 h in 1:4 CA-MHB (pH 7.4). […].
For better characterization of the compounds causing the strongest regrowth delay, we performed the regrowth step of the dilution-regrowth experiments on a plate reader, measuring the OD600 at 20-min intervals for over 20 h instead of using an endpoint measurement. This approach allowed us to capture the time when cultures reached a threshold optical density (start-growth-time, SGT[15]).
Overnight cultures of UPEC, P. aeruginosa and S. aureus were grown in test tubes containing 3 ml of LB broth (~16 h), then diluted 1:100 into either 1:4 diluted CA-MHB medium buffered with 40 mM HEPES (pH 7.4) or, in case of UPEC, into LPM medium[25] supplemented with 49 µM MgCl2 and buffered with 30 mM MES (pH 5.5). The cultures were incubated for 24 h in non-baffled Erlenmeyer flasks at 37 °C with shaking at 200 rpm.
For P. aeruginosa and S. aureus, dose–response analysis was conducted in 96-well plates with a 200 μl assay volume, following the procedure used for screening assay validation experiments. Aliquots of the 39 compounds active against non-growing UPEC were obtained from SelleckChem and MedChem Express. Stock solutions were prepared and stored according to the manufacturers’ instructions, then diluted in 10% DMSO before use. Cultures were incubated for 24 h in 1:4 diluted CA-MHB medium under the same conditions used for UPEC cultivation. In preliminary experiments, each compound was tested at a concentration of 20 μM in the dilution-regrowth assay with 4 technical replicates. Regrowth was monitored using a microplate reader at 37 °C with continuous shaking, and OD600 was recorded every 20 min. The time at which OD600 exceeded the threshold of 0.12 was recorded as the Start_Growth-Time.
The statistical analysis of all data, as well as EC50 and IC50 determination, was conducted using GraphPad Prism 10.2.3. Statistical significance of the drug effects was assessed using a one-way ANOVA followed by Dunnett’s test, comparing each treatment to the drug-free control. Statistical significance of the differences in chemical characteristics between the hit compounds and the Prestwick library was assessed using a Mann–Whitney test. Statistical significance was set at P ≤ 0.05. A five-parameter logistic equation was used for asymmetric sigmoidal curve fitting and for EC50 and IC50 determination. The Venn diagram in Fig. 1F was prepared using BioVenn web application. Characteristics of the chemical and physical properties of Prestwick library compounds were obtained from Supplementary Table S1 from reference. Characteristics of the hit compounds not included in the Prestwick library were retrieved from the PubChem database.

E. coli CFT073 (UPEC) = experiment: MIC, standard microdilution assay, growing UPEC; format: cell-based, Escherichia coli
Outline: as §1

S. aureus DSM2569 = experiment: MIC, standard microdilution assay, growing S. aureus; format: cell-based, Staphylococcus aureus; details: S. aureus, CA-MHB pH 7.4, read-out: MIC (μM) CA-MHB
Outline: as §1

[2] = Pseudomonas aeruginosa, DSM1117, 1:4 diluted CA-MHB pH 7.4, read-out: MIC (μM) 1:4 CA-MHB
[3] = Pseudomonas aeruginosa, DSM1117, CA-MHB pH 7.4, read-out: MIC (μM) CA-MHB
[4] = Pseudomonas aeruginosa, DSM1117
[5] = Escherichia coli, E. coli, pH 7.4, CA-MHB, read-out: MIC (μM) CA-MHB
[6] = Escherichia coli, E. coli, LPM pH 5.5, read-out: MIC

Compound	MIC (S. flexneri 5a M90T)	MIC (P. aeruginosa DSM1117; [2])	MIC (P. aeruginosa DSM1117; [3])	EC50 [1, 4]	MIC (E. coli CFT073 (UPEC); [5])	MIC (S. aureus DSM2569; Staphylococcus aureus, DSM2569)	MIC (E. coli CFT073 (UPEC); [6])	Regrowth, OD600 at 6h or 8h after dilution into drug-free medium ([1]; concentration 2.5)	Regrowth, OD600 at 6h or 8h after dilution into drug-free medium ([1]; concentration 10)	other results
N[C@@H]1CN(c2c(F)cc3c(=O)c(C(=O)O)cn([C@@H]4C[C@@H]4F)c3c2Cl)CC12CC2 [Sitafloxacin]	–	–	–	–	–	–	–	–	–	MIC (μM) TSB (S. flexneri 5a M90T; S. flexneri, extracellular bacteria in TSB): 0.01562 µM (≈ 0.0064 µg/mL); MIC (P. aeruginosa DSM1117; 1:4 diluted CA-MHB pH 7.4, read-out: MIC (μM) 1:4 CA-MHB): 0.5 µM (≈ 0.205 µg/mL); MIC (P. aeruginosa DSM1117; CA-MHB pH 7.4, read-out: MIC (μM) CA-MHB): 0.5 µM (≈ 0.205 µg/mL); EC50 [1]: 54 nM; MIC (E. coli CFT073 (UPEC); E. coli, LPM pH 5.5, read-out: MIC): 0.5 µM (≈ 0.205 µg/mL); MIC (E. coli CFT073 (UPEC); E. coli, pH 7.4, CA-MHB, read-out: MIC (μM) CA-MHB): 0.025 µM (≈ 0.0102 µg/mL); MIC (S. aureus DSM2569): 0.125 µM (≈ 0.0512 µg/mL)
NC1CCN(c2c(F)cc3c(=O)c(C(=O)O)cn(C4CC4)c3c2Cl)C1 (stereo not drawn) [Clinafloxacin]	0.0156 µM (≈ 0.00572 µg/mL)	0.25 µM (≈ 0.0914 µg/mL)	0.5 µM (≈ 0.183 µg/mL)	41 nM	0.0125 µM (≈ 0.00457 µg/mL)	0.125 µM (≈ 0.0457 µg/mL)	–	–	–	MIC (E. coli CFT073 (UPEC); Escherichia coli, see Dataset 1, read-out: MIC (lowest measured MIC for all hit compounds)): 0.0125 µM (≈ 0.00457 µg/mL)
CCN1CCN(c2cc3c(cc2F)c(=O)c(C(=O)O)cn3C2CC2)CC1 [Enrofloxacin]	0.0625 µM (≈ 0.0225 µg/mL)	4 µM (≈ 1.44 µg/mL)	4 µM (≈ 1.44 µg/mL)	690 nM	0.1 µM (≈ 0.0359 µg/mL)	0.5 µM (≈ 0.18 µg/mL)	0.125 µM (≈ 0.0449 µg/mL)	–	–	–
COc1c(N2C[C@@H]3CCCN[C@@H]3C2)c(F)cc2c(=O)c(C(=O)O)cn(C3CC3)c12 [Moxifloxacin]	0.0625 µM (≈ 0.0251 µg/mL)	–	8 µM (≈ 3.21 µg/mL)	264 nM	0.125 µM (≈ 0.0502 µg/mL)	0.125 µM (≈ 0.0502 µg/mL)	–	0.094	0.093	Regrowth, OD600 at 6h or 8h after dilution into drug-free medium ([1]; concentration 0.1): 0.549; Regrowth, OD600 at 6h or 8h after dilution into drug-free medium ([1]; concentration 0.5): 0.215
CO/N=C1\CN(c2nc3c(cc2F)c(=O)c(C(=O)O)cn3C2CC2)CC1CN (stereo not drawn) [Gemifloxacin]	0.0156 µM (≈ 0.00608 µg/mL)	2 µM (≈ 0.779 µg/mL)	1 µM (≈ 0.389 µg/mL)	165 nM	0.025 µM (≈ 0.00973 µg/mL)	0.125 µM (≈ 0.0487 µg/mL)	0.25 µM (≈ 0.0973 µg/mL)	0.091	0.090	Regrowth, OD600 at 6h or 8h after dilution into drug-free medium ([1]; concentration 0.1): 0.486; Regrowth, OD600 at 6h or 8h after dilution into drug-free medium ([1]; concentration 0.5): 0.138
C[C@H]1NCc2cc(-c3ccc4c(=O)c(C(=O)O)cn(C5CC5)c4c3OC(F)F)ccc21 [Garenoxacin]	0.0625 µM (≈ 0.0267 µg/mL)	4 µM (≈ 1.71 µg/mL)	4 µM (≈ 1.71 µg/mL)	978 nM	0.125 µM (≈ 0.0533 µg/mL)	0.125 µM (≈ 0.0533 µg/mL)	0.125 µM (≈ 0.0533 µg/mL)	–	–	–
Cc1oc(=O)oc1CN1CCN(c2cc3c(cc2F)c(=O)c(C(=O)O)c2n3C(C)S2)CC1 (stereo not drawn) [Prulifloxacin]	0.0312 µM (≈ 0.0144 µg/mL)	1 µM (≈ 0.461 µg/mL)	1 µM (≈ 0.461 µg/mL)	97 nM	0.025 µM (≈ 0.0115 µg/mL)	4 µM (≈ 1.85 µg/mL)	0.125 µM (≈ 0.0577 µg/mL)	0.094	0.095	–
CC[C@H]1OC(=O)[C@@](C)(F)C(=O)[C@H](C)[C@@H](O[C@@H]2O[C@H](C)C[C@H](N(C)C)[C@H]2O)[C@](C)(OC)C[C@@H](C)C(=O)[C@H](C)[C@H]2N(CCCCn3cc(-c4cccc(N)c4)nn3)C(=O)O[C@]12C [Solithromycin]	8 µM (≈ 6.76 µg/mL)	80 µM (≈ 67.6 µg/mL)	80 µM (≈ 67.6 µg/mL)	158 nM	8 µM (≈ 6.76 µg/mL)	0.05 µM (≈ 0.0423 µg/mL)	–	–	–	MIC (μM) CA-MHB +PAβN (P. aeruginosa DSM1117; CA-MHB with 10 μg/ml PaβN): >80 µM; MIC (μM) CA-MHB +PAβN (E. coli CFT073 (UPEC); E. coli, pH 7.4, CA-MHB with 10 μg/ml efflux pump inhibitor PaβN): 4 µM (≈ 3.38 µg/mL); MIC (E. coli CFT073 (UPEC); Escherichia coli, E. coli, pH 7.4, 1:4 diluted CA-MHB, read-out: MIC (μM) 1:4 CA-MHB): 10 µM (≈ 8.45 µg/mL)
